{"source": "patent US12509734B2", "about": "“Systems and methods to assess microbiomes and treatments thereof” (priority 2013, dated 2025)", "key": {"vaginal microbiota": {"tested_on": "vaginal microbiota", "assay": "16S-C&S (broad-spectrum clone and sequence) with and without LB-blocking of acute BV and post-tinidazole lavages (Tables 3C, 3D)", "format": "in vivo, human", "source_text": "Amplicon cloning. Amplicon cloning. Broad-spectrum PCR targets were amplified for varying cycle numbers, typically Cp plus 1 or 2 cycles to achieve a “just visible” product on an agarose ethidium-bromide gel. Amplicons derived from PB primers were sequenced directly with the rationale that any species present at 5-10× others amplified by the same PB primer would generate a single, readable sequence; amplicons from PB primers that were unreadable as uncloned amplicons were cloned after nested PCR. They were amplified to maximum fluorescence or maximum cycles for that primer. Products were cleaned by ultrafiltration with the MONTAGE™ PCR kit UFC7PCR50 (Millipore) or QIAQUICK® PCR purification kit (QIAGEN®). One to three microliters of the 20 μl purified product was ligated into pGEM-T Easy vector using the PGEM-T™ Easy Ligation Kit (Promega) according to the manufacturer's specifications. The ligation reaction was carried out for from 4 hours to overnight at 4° C. Forty microliters of E. coli cells (strain XL1-BLUE®, Stratagene) were electroporated using a BioRad GenePulser and Pulse Controller (set at 2.5 kV, 25 μFD capacitance, and 200 ohms resistance) with 1 μl of the ligation, allowed to recover in LB broth 1 h at 37° C., then plated onto LB agar plus 100 μg/ml ampicillin with 0.1 mM IPTG and 20 μg/ml X-gal and grown overnight at 37° C. White colonies and a few blue control colonies were picked from the plates into 100 μl of 15% glycerol or TE, incubated at 94° C. for 5 m; 2 μl of this was amplified in 8 μl of reaction buffer as described, using primers that flank the cloning site in the vector (pUC-F […] (SEQ ID NO: 88), pUC-R […] (SEQ ID NO: 89); 95° C. (1 m), [95° C. (30 s), 45° C. (30 s), 72° C. (30 s)] for 40 cycles, 72° C. (5 m). Extension times for cloned amplicons from PB primers were adjusted as appropriate for each amplicon size according to Tables 3A-3D. An aliquot of each amplicon was tested by agarose gel electrophoresis.\nSequencing and analysis. Full length amplicons (5 μl) were enzymatically cleaned using a 5 μl solution of 0.1 units of NTPhos thermolabile phosphatase and 1 unit of Exonuclease I (Epicentre Biotechnologies), in 20 mM Tris pH 8.3, 50 mM KCl and 10 mM MgCl2 (1×PCR reaction buffer, Invitrogen), incubated at 37° C. for 15 m, then inactivated at 80° C. for 15 m, and used for sequencing. Mini-libraries were constructed from amplicons with co-dominant species (which generate mixed template reads when uncloned); 17 mini-libraries each averaging 11 sequences were sequenced. Enzymatically cleaned amplicons were sequenced with the same primers used for amplification, or T7 for cloned amplicons (Functional Biosciences, Inc.). Sequences were uploaded to Ribosomal Database Project II using the Pipeline function in MyRDP for trimming, quality scoring, alignment, and identification. Only base calls with PHRED quality scores (Q) above 20 were considered. A small number of high quality sequences were rejected by the website as non-ribosomal and were not considered further in this analysis. Aligned sequences, their closest hits via SeqMatch, and manually selected reference species, were downloaded from myRDP, manually trimmed to common 5′ and 3′ ends, and analyzed with Molecular Evolutionary Genetics Analysis (MEGA4 and MEGA5) software. From this, trees were constructed using the bootstrapped Neighbor-Joining method or the Maximum Composite Likelihood method, and used for species identification.\nCompositions determined by 16S-C&S were simply tallies of sequences in each taxa, defined here as those with >97% identity. These tallies were adjusted in libraries from LB-blocked PCR with a correction factor. To determine this factor, the titers of Gardnerella and LB were independently determined with and without blocking by PB-qPCR. Their ratio in the unblocked sample (7×10^−6) was increased in the blocked sample to 0.09, indicating an enrichment of 0.09/7×10^−6=12,600. […]"}, "bacterial vaginosis (BV)": {"tested_on": "bacterial vaginosis (BV)", "assay": "Clinical assessment of BV patients after therapy (Amsel criteria, Nugent score, recurrence)", "format": "in vivo, human", "source_text": "Patients. Five African American participants were followed at the Vaginitis Clinic at Wayne State University and had been treated for recurrent episodes symptomatic bouts of BV. Patients were enrolled after protocol explanation and written informed consent was obtained. The study was endorsed by the Human Investigational Review Board of Wayne State University. At the time of enrollment, patients were diagnosed with florid symptomatic acute BV, characterized by the presence of at least 3 of the 4 Amsel criteria (homogeneous vaginal discharge, pH elevated above 4.5, clue cells>20%, positive whiff test) and Nugent scores of at least 8.\nAt this immediate PT visit, patients were given Catch-All Sample Collection Swabs (Epicentre Biotechnologies, Madison, WI) and 15 mL conical tubes for vaginal specimen self-collection. […] Samples from a previously characterized group of recurrent BV patients, sampled before and after treatment, were also evaluated by Lb-qPCR. Reichman et al., Sexually Transmitted Diseases 36: 732-734, 2009."}, "[1]": {"conditions": "post tinidazole lavage, 16S-C&S, Lactobacillaceae clones"}, "[2]": {"conditions": "post tinidazole lavage, 16S-C&S, target Bacteroidaceae/uc Prevotellaceae"}}}
{"smiles": "CCS(=O)(=O)CCn1c([N+](=O)[O-])cnc1C", "note": "[tinidazole]", "values": [{"measurement": "non-LB share of isolates in post-tinidazole sample", "setting": "vaginal microbiota; FIG. 3, B2, LB-blocked", "value": 0.003, "unit": "%"}, {"measurement": "ID Clones: L. iners", "setting": "vaginal microbiota; [1]", "value": "L. iners 83%, L."}, {"measurement": "ID Clones: L. jensenii", "setting": "vaginal microbiota; [1]", "value": "jensenii 17%,"}, {"measurement": "Cells/sample", "setting": "vaginal microbiota; post tinidazole lavage, 16S-C&S, target Actinobacteria: Actinobacteridae", "value": "1.3E+06", "unit": "Cells/sample"}, {"measurement": "Cells/sample", "setting": "vaginal microbiota; post tinidazole lavage, 16S-C&S, target Alpha-Proteobacteria", "value": "3.4E+04", "unit": "Cells/sample"}, {"measurement": "Cells/sample", "setting": "vaginal microbiota; [2]", "value": "3.4E+04", "unit": "Cells/sample"}, {"measurement": "ID Clones", "setting": "vaginal microbiota; [2]", "value": "Bacteroides sp."}, {"measurement": "Cells/sample", "setting": "vaginal microbiota; post tinidazole lavage, 16S-C&S, target Beta-Proteobacteria", "value": "3.4E+04", "unit": "Cells/sample"}, {"measurement": "Cells/sample", "setting": "vaginal microbiota; post tinidazole lavage, 16S-C&S, target Broad-spectrum", "value": "8.4E+09", "unit": "Cells/sample"}, {"measurement": "Cells/sample", "setting": "vaginal microbiota; post tinidazole lavage, 16S-C&S, target Clostridiales Incertae Sedis XI", "value": 0, "unit": "Cells/sample"}, {"measurement": "Cells/sample", "setting": "vaginal microbiota; post tinidazole lavage, 16S-C&S, target Clostridiales Incertae Sedis XII", "value": 0, "unit": "Cells/sample"}, {"measurement": "Cells/sample", "setting": "vaginal microbiota; post tinidazole lavage, 16S-C&S, target Coriobacteridae", "value": 0, "unit": "Cells/sample"}, {"measurement": "Cells/sample", "setting": "vaginal microbiota; post tinidazole lavage, 16S-C&S, target Cross-family Clostridia", "value": 0, "unit": "Cells/sample"}, {"measurement": "Cells/sample", "setting": "vaginal microbiota; post tinidazole lavage, 16S-C&S, target Enterobacteriales, Pasteurellales, Pseudomonadaceae", "value": "3.4E+05", "unit": "Cells/sample"}, {"measurement": "Cells/sample", "setting": "vaginal microbiota; post tinidazole lavage, 16S-C&S, target Epsilon-Proteobacteria", "value": "3.4E+04", "unit": "Cells/sample"}, {"measurement": "Cells/sample", "setting": "vaginal microbiota; post tinidazole lavage, 16S-C&S, target Firmicute: Lactobacillaceae", "value": "8.4E+09", "unit": "Cells/sample"}, {"measurement": "Cells/sample", "setting": "vaginal microbiota; post tinidazole lavage, 16S-C&S, target Fusobacterium", "value": 0, "unit": "Cells/sample"}, {"measurement": "Cells/sample", "setting": "vaginal microbiota; post tinidazole lavage, 16S-C&S, target Lachnospiracea uc & incertae sedis Clostridium IVa", "value": 0, "unit": "Cells/sample"}, {"measurement": "Cells/sample", "setting": "vaginal microbiota; post tinidazole lavage, 16S-C&S, target Megasphaera/Dialister/Veillonella", "value": 0, "unit": "Cells/sample"}, {"measurement": "Cells/sample", "setting": "vaginal microbiota; post tinidazole lavage, 16S-C&S, target Mobiluncus", "value": 0, "unit": "Cells/sample"}, {"measurement": "Cells/sample", "setting": "vaginal microbiota; post tinidazole lavage, 16S-C&S, target Mycoplasmatales", "value": 0, "unit": "Cells/sample"}, {"measurement": "Cells/sample", "setting": "vaginal microbiota; post tinidazole lavage, 16S-C&S, target Peptostreptococcaceae", "value": 0, "unit": "Cells/sample"}, {"measurement": "Cells/sample", "setting": "vaginal microbiota; post tinidazole lavage, 16S-C&S, target Staphylococcus", "value": 0, "unit": "Cells/sample"}, {"measurement": "Cells/sample", "setting": "vaginal microbiota; post tinidazole lavage, 16S-C&S, target Streptococcus", "value": 0, "unit": "Cells/sample"}, {"measurement": "Cells/sample", "setting": "vaginal microbiota; post tinidazole lavage, 16S-C&S, target uc Clostridiales (BVAB283 subset)", "value": 0, "unit": "Cells/sample"}, {"measurement": "Clinical status after treatment", "setting": "bacterial vaginosis (BV); BV patient (Nugent 10 at acute phase), 500 mg twice a day for 10 days", "value": "full remission"}, {"measurement": "Amine test after therapy", "setting": "bacterial vaginosis (BV); P4, 500 mg bid for 7 days", "value": "negative"}, {"measurement": "Clinical status one week after completing therapy", "setting": "bacterial vaginosis (BV); P4, 500 mg bid for 7 days", "value": "entirely asymptomatic"}, {"measurement": "Vaginal pH after therapy", "setting": "bacterial vaginosis (BV); P4, 500 mg bid for 7 days", "value": 4.2}, {"measurement": "Recurrence of BV", "setting": "bacterial vaginosis (BV); P4, followed for a month", "value": "did not recur"}, {"measurement": "Outcome at return within three weeks by Amsel criteria", "setting": "bacterial vaginosis (BV); five recurrent BV patients, Nugent scores of 0 except Patient 5", "value": "clinical cure"}]}
